Measured values published in ChEMBL document CHEMBL1201862, “PubChem BioAssay data set” (2004).
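Cultured in 96-well plates, cells were exposed to test compound for 48 hours across five concentrations. GI50: concentration for 50% inhibition of growth.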 The source made the active and inactive calls. No stated cut-off is given here; in the data, active = GI50 up to about 1.1 µM and inactive = higher.

Tests used:
Test in all cases: inhibition of tumour cell growth, NCI panel, 48 h
SNB-75 = tested on: SNB-75
UACC-257 = tested on: UACC-257
M14 = tested on: M14
HT-29 = tested on: HT-29
SNB-19 = tested on: SNB-19
SF-268 = tested on: SF-268
MDA-MB-231 = tested on: MDA-MB-231
HL-60 = tested on: HL-60
EKVX = tested on: EKVX
LOX IMVI = tested on: LOX IMVI
MDA-N = tested on: MDA-N
MDA-MB-435 = tested on: MDA-MB-435
SF-539 = tested on: SF-539
Malme-3M = tested on: Malme-3M
SN12C = tested on: SN12C
HOP-92 = tested on: HOP-92
NCI-H23 = tested on: NCI-H23
SF-295 = tested on: SF-295
DLD-1 = tested on: DLD-1
BT-549 = tested on: BT-549

In the case of `Clc1ccc2ns[s+]c2c1`, the GI50 (SNB-75) is reported as > 79.3 µM (inactive), the GI50 (UACC-257) is reported as 14.5 µM (inactive) and the GI50 (M14) is reported as 0.222 µM (active). For the same compound, the GI50 (HT-29) was 3.39 µM (inactive), the GI50 (SNB-19) was 29.2 µM (inactive) and the GI50 (SF-268) was 11.3 µM (inactive). For the same compound, the GI50 (MDA-MB-231) was 25.3 µM (inactive), the GI50 (HL-60) was 1.09 µM (active) and the GI50 (EKVX) was 17.7 µM (inactive). The GI50 (LOX IMVI) was 1.29 µM (inactive), the GI50 (MDA-N) was 3.4 µM (inactive) and the GI50 (MDA-MB-435) was 0.334 µM (active). For the same compound, the GI50 (SF-539) was 3.53 µM (inactive), the GI50 (Malme-3M) was 32.2 µM (inactive) and the GI50 (SN12C) was 19.4 µM (inactive). For the same compound, the GI50 (HOP-92) was 22.5 µM (inactive), the GI50 (NCI-H23) was 11.7 µM (inactive) and the GI50 (SF-295) was 0.853 µM (active). For the same compound, the GI50 (DLD-1) was 0.625 µM (active) and the GI50 (BT-549) was 16.3 µM (inactive).
